Laboratory results: PubChem BioAssay AID248 (DTP/NCI, 2004)
Several values for one entry are separate records, joined by “and”; a condition that tells them apart may be missing. Equal entries are not always repeated. Toxic doses and inconclusive results are not listed. Rule as the data show it: active = T/C of 150% or more; inactive = T/C below 125%.

System: L1210 leukemia ip in BDF1 mice, survival T/C
Experiment: NCI In Vivo Anticancer Drug Screen. Data for tumor model L1210 Leukemia (intraperitoneal) in B6D2F1 (BDF1) mice
Settings: endpoint: mean survival time, higher = longer survival
Method in brief: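 Antitumor effect is assessed in tumor-bearing animals. Survival in the compound arm is compared with a vehicle-dosed control arm and expressed as their quotient.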

[1] = dose: 75.0 mg/kg/injection, schedule: Q01DX001 (ip), vehicle: other
[2] = dose: 75.0 mg/kg/injection, schedule: Q01DX001 (ip), vehicle: saline
[3] = dose: 150.0 mg/kg/injection, schedule: Q01DX001 (ip), vehicle: other
[4] = dose: 100.0 mg/kg/injection, schedule: Q04DX003 (ip), vehicle: Klucel (hydroxypropylcellulose) (HPC)
[5] = dose: 200.0 mg/kg/injection, schedule: Q04DX003 (ip), vehicle: Klucel (hydroxypropylcellulose) (HPC)
[6] = dose: 400.0 mg/kg/injection, schedule: Q04DX003 (ip), vehicle: Klucel (hydroxypropylcellulose) (HPC)
[7] = dose: 100.0 mg/kg/injection, schedule: Q01DX009 (ip), vehicle: Klucel (hydroxypropylcellulose) (HPC)
[8] = dose: 100.0 mg/kg/injection, schedule: Q04DX003 (ip), vehicle: saline with Tween-80
[9] = dose: 200.0 mg/kg/injection, schedule: Q01DX009 (ip), vehicle: Klucel (hydroxypropylcellulose) (HPC)
[10] = dose: 200.0 mg/kg/injection, schedule: Q04DX003 (ip), vehicle: saline with Tween-80
[11] = dose: 100.0 mg/kg/injection, schedule: Q04DX002 (ip), vehicle: Klucel (hydroxypropylcellulose) (HPC)
[12] = dose: 200.0 mg/kg/injection, schedule: Q04DX002 (ip), vehicle: Klucel (hydroxypropylcellulose) (HPC)
[13] = dose: 100.0 mg/kg/injection, schedule: Q01DX001 (ip), vehicle: carboxymethylcellulose (CMC)
[14] = dose: 200.0 mg/kg/injection, schedule: Q01DX001 (ip), vehicle: carboxymethylcellulose (CMC)
[15] = dose: 400.0 mg/kg/injection, schedule: Q01DX001 (ip), vehicle: carboxymethylcellulose (CMC)
[16] = dose: 50.0 mg/kg/injection, schedule: Q01DX001 (ip), vehicle: carboxymethylcellulose (CMC)
[17] = dose: 400.0 mg/kg/injection, schedule: Q04DX003 (ip), vehicle: saline with Tween-80

Measured: T/C

CN1C2CSCC1CC(O)C2 (configuration not stated)
inactive: dose: 37.0 mg/kg/injection, schedule: Q04DX003 (ip), vehicle: other 101 % of control | dose: 37.5 mg/kg/injection, schedule: Q01DX009 (ip), vehicle: other 105 % of control | [1] 102 % of control | [2] 103 % of control | dose: 75.0 mg/kg/injection, schedule: Q01DX009 (ip), vehicle: other 104 % of control | dose: 75.0 mg/kg/injection, schedule: Q04DX003 (ip), vehicle: other 98 % of control | [3] 93 % of control | dose: 150.0 mg/kg/injection, schedule: Q01DX009 (ip), vehicle: other 104 % of control | dose: 150.0 mg/kg/injection, schedule: Q04DX003 (ip), vehicle: other 101 % of control

CC[Si](CC)(CC)C(C)Cl (configuration not stated)
inactive: [4] 101 % of control | [5] 101 % of control | [6] 98 % of control

C/C=C(\CC)C1(CCC)C(=O)NC(=O)N(C)C1=O (configuration not stated)
inactive: [1] 103 % of control | [2] 95 % of control | [3] 103 % of control | dose: 150.0 mg/kg/injection, schedule: Q01DX001 (ip), vehicle: saline 106 % of control | dose: 300.0 mg/kg/injection, schedule: Q01DX001 (ip), vehicle: other 101 % of control | dose: 300.0 mg/kg/injection, schedule: Q01DX001 (ip), vehicle: saline 106 % of control

Cc1cccc(N2CCN(c3ccncc3N)CC2C)c1 (configuration not stated)
inactive: dose: 19.0 mg/kg/injection, schedule: Q01DX009 (ip), vehicle: saline with Tween-80 102 % of control | dose: 37.5 mg/kg/injection, schedule: Q04DX003 (ip), vehicle: saline with Tween-80 94 % of control | dose: 38.0 mg/kg/injection, schedule: Q01DX009 (ip), vehicle: saline with Tween-80 91 % of control | dose: 75.0 mg/kg/injection, schedule: Q01DX009 (ip), vehicle: saline with Tween-80 89 % of control | dose: 75.0 mg/kg/injection, schedule: Q04DX003 (ip), vehicle: saline with Tween-80 94 % of control

CSc1ncnc2c1ncn2-n1cccc1
inactive: dose: 100.0 mg/kg/injection, schedule: Q01DX001 (ip), vehicle: saline with Tween-80 104 % of control | [7] 97 % of control | [4] 93 % of control | [8] 103 % of control | dose: 200.0 mg/kg/injection, schedule: Q01DX001 (ip), vehicle: saline with Tween-80 106 % of control | [9] 95 % of control | [5] 96 % of control | [10] 101 % of control | dose: 400.0 mg/kg/injection, schedule: Q01DX001 (ip), vehicle: saline with Tween-80 95 % of control | dose: 400.0 mg/kg/injection, schedule: Q01DX009 (ip), vehicle: Klucel (hydroxypropylcellulose) (HPC) 101 % of control | [6] 98 % of control

ONc1ccc(Cl)cc1
inactive: dose: 6.25 mg/kg/injection, schedule: Q01DX009 (ip), vehicle: gum acacia 105 % of control | dose: 12.5 mg/kg/injection, schedule: Q01DX001 (ip), vehicle: gum acacia 104 % of control | dose: 12.5 mg/kg/injection, schedule: Q01DX009 (ip), vehicle: gum acacia 100 % of control | dose: 12.5 mg/kg/injection, schedule: Q04DX003 (ip), vehicle: gum acacia 100 % of control | dose: 25.0 mg/kg/injection, schedule: Q01DX001 (ip), vehicle: gum acacia 104 % of control | dose: 25.0 mg/kg/injection, schedule: Q04DX003 (ip), vehicle: gum acacia 98 % of control | dose: 50.0 mg/kg/injection, schedule: Q01DX001 (ip), vehicle: gum acacia 100 % of control

C/C(=N\NC(N)=S)c1cccs1
inactive: dose: 12.5 mg/kg/injection, schedule: Q04DX003 (ip), vehicle: saline with Tween-80 93 % of control | dose: 25.0 mg/kg/injection, schedule: Q04DX003 (ip), vehicle: saline with Tween-80 103 % of control | dose: 50.0 mg/kg/injection, schedule: Q04DX003 (ip), vehicle: saline with Tween-80 101 % of control

O=C1NC(=S)S/C1=C\c1ccc([N+](=O)[O-])s1
inactive: [11] 90 % of control | [12] 93 % of control

Cc1ccc(N=Nc2cc(C(C)C)c(O)cc2C)cc1
inactive: dose: 100.0 mg/kg/injection, schedule: Q01DX001 (ip), vehicle: other 97 % of control | dose: 200.0 mg/kg/injection, schedule: Q01DX001 (ip), vehicle: other 97 % of control | dose: 400.0 mg/kg/injection, schedule: Q01DX001 (ip), vehicle: other 95 % of control

O=C(Nc1ncccn1)Nc1ccccc1C(F)(F)F
inactive: dose: 100.0 mg/kg/injection, schedule: Q01DX009 (ip), vehicle: gum acacia 88 % of control | dose: 200.0 mg/kg/injection, schedule: Q01DX009 (ip), vehicle: gum acacia 86 % of control | dose: 400.0 mg/kg/injection, schedule: Q01DX009 (ip), vehicle: gum acacia 88 % of control

N#CCCC(CCC#N)(S(=O)(=O)Cc1ccccc1)S(=O)(=O)Cc1ccccc1
inactive: [13] 101 % of control | [14] 101 % of control | [15] 89 % of control

CN1C(=O)C/C(=C/[N+](=O)[O-])c2ccccc21
inactive: [16] 101 % of control | [13] 97 % of control

CCC(CO)Nc1nc2ccc([N+](=O)[O-])cc2c2ccccc12 (configuration not stated)
inactive: [7] 103 % of control | [4] 94 % of control | [9] 111 % of control | [5] 102 % of control | [6] 102 % of control

COc1cc(C)c(CN(C)C)c(OC)c1
inactive: dose: 27.0 mg/kg/injection, schedule: Q01DX Z (ip), vehicle: methylcellulose (MC) 102 % of control

CCNc1cc(Cl)nc(N)n1
inactive: dose: 100.0 mg/kg/injection, schedule: Q01DX009 (ip), vehicle: saline with Tween-80 92 % of control | [8] 105 % of control | dose: 200.0 mg/kg/injection, schedule: Q01DX009 (ip), vehicle: saline with Tween-80 101 % of control | [10] 98 % of control | dose: 400.0 mg/kg/injection, schedule: Q01DX009 (ip), vehicle: saline with Tween-80 104 % of control | [17] 104 % of control

O=C(Nc1ccc(F)cc1)Nc1cccc(Cl)c1
inactive: [16] 101 % of control | [13] 101 % of control | [14] 93 % of control | [15] 106 % of control

O=c1[nH]c(=S)n2ncnc2[nH]1
inactive: [8] 109 % of control | [10] 102 % of control | [17] 95 % of control

Nc1ncnc2c1nc(N)n2C1OC(CO)C(O)C1O (configuration not stated)
inactive: dose: 100.0 mg/kg/injection, schedule: Q01DX001 (ip), vehicle: saline 115 % of control and 104 % of control | dose: 200.0 mg/kg/injection, schedule: Q01DX001 (ip), vehicle: saline 123 % of control and 104 % of control | dose: 400.0 mg/kg/injection, schedule: Q01DX001 (ip), vehicle: saline 98 % of control

CC(=O)OC1CCC2(C)C(=CCC3C2CCC2(C)C3CC3C(c4ccccc4Cl)=NN(c4ccccc4)C32C#N)C1 (configuration not stated)
inactive: [11] 95 % of control | [12] 95 % of control | dose: 400.0 mg/kg/injection, schedule: Q04DX002 (ip), vehicle: Klucel (hydroxypropylcellulose) (HPC) 95 % of control
